ChEMBL document CHEMBL4138247, “Synthesis of new triterpenic monomers and dimers as potential antiproliferative agents and their molecular docking studies” (Eur J Med Chem, 2018)
pIC50: −log10 of the molar value.

How the values were obtained:
Format in all cases: functional, cell-based
HT-29 = test: Antiproliferative activity against human HT-29 cells after 96 hrs by SRB assay; details: HT-29, 96 h
A2780 = test: Antiproliferative activity against human A2780 cells after 96 hrs by SRB assay; details: A2780, 96 h
A-375 = test: Antiproliferative activity against human A375 cells after 96 hrs by SRB assay; details: A-375, 96 h
FaDu = test: Antiproliferative activity against human FADU cells after 96 hrs by SRB assay

| SMILES | pIC50 (HT-29) | pIC50 (A2780) | pIC50 (A-375) | pIC50 (FaDu) |
| --- | --- | --- | --- | --- |
| C/C(=C\CC/C(C)=C/CC[C@@H]1[C@@]2(C)CCC(=O)C(C)(C)[C@@H]2CC[C@@]1(C)O)CC/C=C(\C)C(=O)OCCOC(=O)/C(C)=C/CC/C(C)=C/CC/C(C)=C/CC[C@@H]1[C@@]2(C)CC[C@@H](O)C(C)(C)[C@@H]2CC[C@@]1(C)O | 5.00 | 4.68 | 4.81 | < 4.52 |
| C/C(=C\CC/C(C)=C/CC[C@@H]1[C@@]2(C)CCC(=O)C(C)(C)[C@@H]2CC[C@@]1(C)O)CC/C=C(\C)C(=O)OCCCBr | 5.09 | 4.74 | 4.93 | < 4.52 |
| C=C(C)[C@@H]1CC[C@]2(C)CC[C@]3(C)[C@H](CC[C@@H]4[C@@]5(C)CC[C@@H](O)[C@](C)(C(=O)OCCCCBr)[C@@H]5CC[C@]43C)[C@@H]12 | < 4.52 | < 4.52 | 4.74 | < 4.52 |
| C/C(=C\CC/C(C)=C/CC[C@@H]1[C@@]2(C)CCC(=O)C(C)(C)[C@@H]2CC[C@@]1(C)O)CC/C=C(\C)C(=O)OCCCCOC(=O)/C(C)=C/CC/C(C)=C/CC/C(C)=C/CC[C@@H]1[C@@]2(C)CC[C@H](O)C(C)(C)[C@@H]2CC[C@@]1(C)O | 5.09 | 4.79 | 4.97 | 4.55 |
| C/C(=C\CC/C(C)=C/CC[C@@H]1[C@@]2(C)CCC(=O)C(C)(C)[C@@H]2CC[C@@]1(C)O)CC/C=C(\C)C(=O)OCCCOC(=O)[C@@]1(C)[C@H](O)CC[C@@]2(C)[C@H]1CC[C@]1(C)[C@@H]2C(=O)C=C2[C@@H]3[C@@H](C)[C@H](C)CC[C@]3(C)CC[C@]21C | < 4.52 | < 4.52 | < 4.52 | < 4.52 |
| C/C(=C\CC/C(C)=C/CC[C@@H]1[C@@]2(C)CCC(=O)C(C)(C)[C@@H]2CC[C@@]1(C)O)CC/C=C(\C)C(=O)OCCCCOC(=O)/C(C)=C/CC/C(C)=C/CC/C(C)=C/CC[C@@H]1[C@@]2(C)CCC(=O)C(C)(C)[C@@H]2CC[C@@]1(C)O | 5.06 | 4.62 | 4.91 | < 4.52 |
| C=C(C)[C@@H]1CC[C@]2(C)CC[C@]3(C)[C@H](CC[C@@H]4[C@@]5(C)CC[C@@H](O)[C@](C)(C(=O)OCCCBr)[C@@H]5CC[C@]43C)[C@@H]12 | 4.61 | 4.57 | 4.78 | 4.57 |
| C/C(=C\CC/C(C)=C/CC[C@@H]1[C@@]2(C)CCC(=O)C(C)(C)[C@@H]2CC[C@@]1(C)O)CC/C=C(\C)C(=O)OCCBr | < 4.52 | < 4.52 | < 4.52 | < 4.52 |
| C/C(=C\CC/C(C)=C/CC[C@@H]1[C@@]2(C)CCC(=O)C(C)(C)[C@@H]2CC[C@@]1(C)O)CC/C=C(\C)C(=O)OCCCOC(=O)/C(C)=C/CC/C(C)=C/CC/C(C)=C/CC[C@@H]1[C@@]2(C)CCC(=O)C(C)(C)[C@@H]2CC[C@@]1(C)O | 5.27 | 4.80 | 4.98 | < 4.52 |
| C/C(=C\CC/C(C)=C/CC[C@@H]1[C@@]2(C)CCC(=O)C(C)(C)[C@@H]2CC[C@@]1(C)O)CC/C=C(\C)C(=O)OCCOC(=O)[C@@]1(C)[C@H](O)CC[C@@]2(C)[C@H]1CC[C@]1(C)[C@@H]2C(=O)C=C2[C@@H]3[C@@H](C)[C@H](C)CC[C@]3(C)CC[C@]21C | < 4.52 | < 4.52 | < 4.52 | < 4.52 |

Second part, led by results:

| pIC50 (HT-29) | pIC50 (A2780) | pIC50 (A-375) | SMILES | pIC50 (FaDu) |
| --- | --- | --- | --- | --- |
| < 4.52 | < 4.52 | < 4.52 | C/C(=C\CC/C(C)=C/CC[C@@H]1[C@@]2(C)CCC(=O)C(C)(C)[C@@H]2CC[C@@]1(C)O)CC/C=C(\C)C(=O)OCCCCOC(=O)[C@@]1(C)[C@H](O)CC[C@@]2(C)[C@H]1CC[C@]1(C)[C@@H]2C(=O)C=C2[C@@H]3[C@@H](C)[C@H](C)CC[C@]3(C)CC[C@]21C | < 4.52 |
| < 4.52 | < 4.52 | < 4.52 | C=C(C)[C@@H]1CC[C@]2(C(=O)OCCCCOC(=O)/C(C)=C/CC/C(C)=C/CC/C(C)=C/CC[C@@H]3[C@@]4(C)CCC(=O)C(C)(C)[C@@H]4CC[C@@]3(C)O)CC[C@]3(C)[C@H](CC[C@@H]4[C@@]5(C)CC[C@H](O)C(C)(C)[C@@H]5CC[C@]43C)[C@@H]12 | < 4.52 |
| 5.17 | 4.83 | 4.95 | C/C(=C\CC/C(C)=C/CC[C@@H]1[C@@]2(C)CCC(=O)C(C)(C)[C@@H]2CC[C@@]1(C)O)CC/C=C(\C)C(=O)OCCCOC(=O)/C(C)=C/CC/C(C)=C/CC/C(C)=C/CC[C@@H]1[C@@]2(C)CC[C@@H](O)C(C)(C)[C@@H]2CC[C@@]1(C)O | 4.60 |
| 4.84 | 4.67 | 4.84 | C/C(=C\CC/C(C)=C/CC[C@@H]1[C@@]2(C)CCC(=O)C(C)(C)[C@@H]2CC[C@@]1(C)O)CC/C=C(\C)C(=O)OCCCCBr | < 4.52 |
| 4.85 | < 4.52 | 4.61 | C/C(=C\CC/C(C)=C/CC[C@@H]1[C@@]2(C)CCC(=O)C(C)(C)[C@@H]2CC[C@@]1(C)O)CC/C=C(\C)C(=O)OCCOC(=O)/C(C)=C/CC/C(C)=C/CC/C(C)=C/CC[C@@H]1[C@@]2(C)CCC(=O)C(C)(C)[C@@H]2CC[C@@]1(C)O | < 4.52 |
| 4.64 | 4.54 | 4.76 | C=C(C)[C@@H]1CC[C@]2(C)CC[C@]3(C)[C@H](CC[C@@H]4[C@@]5(C)CC[C@@H](O)[C@](C)(C(=O)OCCBr)[C@@H]5CC[C@]43C)[C@@H]12 | 4.58 |
